The source of these data is patent EP2574339A1, “Pharmaceutical preparation for treating NADH-related illnesses” (Huber, Johannes, priority 2011, dated 2013).

The test system of assay [1] is 293mitoPARP Zellen. The experiment in a line: Cell viability (MTT assay) of 293mitoPARP cells. In kind it is cell-based, menschlichen Zellen. The settings on record: for Zell-Überleben: FK866 (2 µM), 100 µM metabolite, 72 h, Fig. 3A. (In general: Formazan colour is commonly taken as a measure of viable cells.)
Procedure: (§1) Inhibitoren (2 µM FK866, 2 mM 3-AB, 10 µM NBTI, 2 µM Dipyridamol, 2 mM CMP, 25 µM PPADS, 1 mM Ap4A) oder Metaboliten (100 µM NAD^+, 100 µM NAAD, 100 µM NMN, 100 µM NAMN, 100 µM NA, 100 µM NR) wurden dem Zellkulturmedium zugesetzt, wie angegeben. […] Die Behandlung mit Inhibitoren und Metaboliten wurde für 24-48 h vor der Analyse von PAR Bildung und die Lebensfähigkeit der Zellen durchgeführt (72 h für 293mitoPARP Zellen, 96 h für HeLa S3-Zellen und 120 h für HepG2-Zellen). Die Lebensfähigkeit der Zellen wurde mittels MTT-Assay bestimmt.
A further assay concerns HeLa S3-Zellen. The experiment in a line: Cell viability (MTT assay) of HeLa S3 cells. It is filed as cell-based, menschlichen Zellen. The settings on record: for Überleben: FK866 (2 µM), 100 µM metabolite, 96 h, Fig. 3B.
Assay [2] relates to menschlichen Zellen. Description: Mitochondrial NAD+ generation / PAR formation from extracellular precursors with inhibitors, cell line not stated. The conditions noted are these: for Funktion von NMN als extrazellulärer NAD^+-Vorläufer: NMN as precursor in presence of nucleoside transporter inhibitor (2 µM Dipyridamol, 10 µM NBTI); for NR-Nutzung: NR as precursor, nucleoside transporter inhibitor added. In kind it is cell-based.

Assay [3] has as its system 293mitoPARP Zellen. Description: Mitochondrial NAD+ content by PAR formation (mitoPARP) in 293mitoPARP cells. It is filed as cell-based, menschlichen Zellen. The settings on record: NamPRT inhibited by FK866 (2 µM), 100 µM metabolite in the medium, Fig. 3A. On the procedure: Inhibitoren (2 µM FK866, 2 mM 3-AB, 10 µM NBTI, 2 µM Dipyridamol, 2 mM CMP, 25 µM PPADS, 1 mM Ap4A) oder Metaboliten (100 µM NAD^+, 100 µM NAAD, 100 µM NMN, 100 µM NAMN, 100 µM NA, 100 µM NR) wurden dem Zellkulturmedium zugesetzt, wie angegeben. NR wurde wie beschrieben bereitgestellt (Dölle et al., Anal. Biochem. 385 (2009), 377-379). Die Behandlung mit Inhibitoren und Metaboliten wurde für […] vor der Analyse von PAR Bildung und die Lebensfähigkeit der Zellen durchgeführt (72 h für 293mitoPARP Zellen, 96 h für HeLa S3-Zellen und 120 h für HepG2-Zellen). Die Lebensfähigkeit der Zellen wurde mittels MTT-Assay bestimmt.
Es wurden 293mitoPARP Zellen bereitgestellt, die ein Fusionsprotein exprimieren ("mitoPARP"), bestehend aus EGFP und PARP1cd (poly-ADP-Ribose-Polymerase-1), welches auf die mitochondriale Matrix abgezielt wurde. Mit mitochondrialem NAD^+ als Substrat generieren diese Zellen konstitutiv Protein-gebundenes PAR (Protein-gebundene poly-ADP-Ribose), welches immunchemisch visualisiert wird. Variationen im Umfang der erfassten PAR spiegeln damit Veränderungen des mitochondrialen NAD^+-Gehaltes wider. Ebenso wurde die transiente Expression von mitoPARP in HepG2 und HeLa S3 Zellen verwendet.
Ein PAR-Signal hängt sowohl von der katalytischen Aktivität von mitoPARP als auch von der Anwesenheit von NAD^+ ab. Folglich erlaubt die mitoPARP-Expression die Erkennung von Änderungen im mitochondrialen NAD^+-Gehalt.

For a further assay, the system named is HeLa S3 Zellen. The experiment in a line: Mitochondrial NAD+ content by PAR formation (transient mitoPARP) in HeLa S3 cells. In kind it is cell-based, menschlichen Zellen. The conditions noted are these: FK866 (2 µM), 100 µM metabolite, Fig. 3B.
The subject of assay [4] is menschlichen Zellen. Description: Cell viability (MTT assay) with extracellular precursors and inhibitors, cell line not stated. In kind it is cell-based.
[5] abbreviates: NAD^+ as extracellular precursor, competitive NPP substrate added (1 mM Ap4A), effect similar to PPADS.
The mark [6] stands for this setting: NMN as precursor, 2 mM CMP added.
Where [7] appears, read: extracellular NR (100 µM), b59: in Gegenwart von CMP, Fig. 4B.
The mark [8] stands for this setting: NAD^+ as extracellular precursor, inhibitor added (25 µM PPADS), cell line not stated.

“Also recorded” adds a separate entry of the source.

Procedure for HeLa S3-Zellen: as §1

Regarding `Nc1ncnc2c1ncn2[C@@H]1O[C@H](COP(=O)(O)OP(=O)(O)OP(=O)(O)OP(=O)(O)OC[C@H]2O[C@@H](n3cnc4c(N)ncnc43)[C@H](O)[C@@H]2O)[C@@H](O)[C@H]1O` [Ap4A, Diadenosintetraphosphat], the “Lebensfähigkeit der Zellen” value in the assay with 293mitoPARP Zellen [1] (setting [5]) and with HeLa S3-Zellen (setting [5]) was “ähnlichen Effekt” each time.

Consider `Nc1ccn([C@@H]2O[C@H](COP(=O)(O)O)[C@@H](O)[C@H]2O)c(=O)n1` [CMP], for which the Zellviabilität entry with 293mitoPARP Zellen [1] (setting [6]) and with HeLa S3-Zellen (setting [6]) was “verringert” in each case.

Turning to `OCCN(CCO)c1nc(N2CCCCC2)c2nc(N(CCO)CCO)nc(N3CCCCC3)c2n1` [Dipyridamol], in the assay with menschlichen Zellen [2] (Fig. 4A), the “Funktion von NMN als extrazellulärer NAD^+-Vorläufer” value is “verlor NMN seine Funktion”. The NR-Nutzung result in the assay on menschlichen Zellen [2] (Fig. 4B) is listed as “hemmen”.

Consider `O=C(/C=C/c1cccnc1)NCCCCC1CCN(C(=O)c2ccccc2)CC1` [FK866], for which the “Nam Nutzung” value in the assay with menschlichen Zellen [2] (2 µM FK866, Fig. 3) is given as “gehemmt”.

With `O=C(O)c1cccnc1` [NA, Nikotinsäure], the “mitochondrialer NAD^+-Gehalt (PAR)” value with 293mitoPARP Zellen [3] is given as “wiederherstellen”. The Zell-Überleben entry with 293mitoPARP Zellen [1] was “wiederherstellen”. Moreover, the Überleben result in the assay on HeLa S3-Zellen is recorded as “Restaurierung des Überlebens”.

Take `O=C([O-])c1ccc[n+]([C@@H]2O[C@H](COP(=O)(O)O)[C@@H](O)[C@H]2O)c1` [NAMN, Nikotinsäure-Mononukleotid]: the “mitochondrialer NAD^+-Gehalt (PAR)” value with 293mitoPARP Zellen [3] was “unterstützen; also recorded: wiederherstellen”. The “mitochondriale NAD^+-Bildung” value with HeLa S3 Zellen is “unterstützen”. Besides, the Zell-Überleben entry with 293mitoPARP Zellen [1] is given as “schützen; also recorded: wiederherstellen”. Moreover, in the assay on HeLa S3-Zellen, the Überleben entry is “schützen; also recorded: Restaurierung des Überlebens”. The “mitochondriale NAD^+-Generierung von NAMN” value in the assay with menschlichen Zellen [2] (NAMN as precursor in presence of CMP, Dipyridamol, NBTI, Fig. 4A) is recorded as “sensitiv gegenüber diesen Inhibitoren, wenn auch weniger stark”.

In the case of `O=[N+]([O-])c1ccc(CSc2ncnc3c2ncn3[C@@H]2O[C@H](CO)[C@@H](O)[C@H]2O)cc1` [NBTI], in the assay on menschlichen Zellen [2] (Fig. 4A), the “Funktion von NMN als extrazellulärer NAD^+-Vorläufer” value is “verlor NMN seine Funktion”. In addition, the NR-Nutzung result in the assay on menschlichen Zellen [2] (Fig. 4B) is listed as “hemmen”.

With `NC(=O)c1ccc[n+]([C@@H]2O[C@H](COP(=O)([O-])O)[C@@H](O)[C@H]2O)c1` [NMN, Nikotinamid-Mononukleotid], the “mitochondrialer NAD^+-Gehalt (PAR)” value in the assay on 293mitoPARP Zellen [3] was “unterstützen; also recorded: wiederherstellen”. In addition, the “mitochondriale NAD^+-Bildung” value in the assay on HeLa S3 Zellen was “unterstützen”. Moreover, in the assay with 293mitoPARP Zellen [1], the Zell-Überleben result is “schützen; also recorded: wiederherstellen”. Moreover, the Überleben entry with HeLa S3-Zellen was “schützen; also recorded: Restaurierung des Überlebens”.

For the compound `NC(=O)c1ccc[n+]([C@@H]2O[C@H](CO)[C@@H](O)[C@H]2O)c1` [NR, 1-[3,4-Dihydroxy-5-(hydroxymethyl)oxolan-2-yl]pyridin-5-carboxamid], the “mitochondriale PAR-Bildung / mitochondriale NAD^+-Generierung” value in the assay on menschlichen Zellen [2] (setting [7]) is given as “unterstützt”. For the same compound, the “Zelllebensfähigkeit / Zellviabilität” value in the assay on menschlichen Zellen [4] (setting [7]) is on record as “unterstützt”.

For the compound `Cc1nc(N=Nc2ccc(S(=O)(=O)O)cc2S(=O)(=O)O)c(COP(=O)(O)O)c(C=O)c1O` [PPADS], the “Wiederherstellung des mitochondrialen NAD^+-Pools” value in the assay with menschlichen Zellen [2] (setting [8]) is “verhindert”. The “Überleben der Zelle” value with menschlichen Zellen [4] (setting [8]) was “verhindert”.
